In one assay the target is CDK13 (Homo sapiens, UniProt Q14004). As to the kind of experiment: CDK13 kinase inhibitory activity assay (33P-ATP filter binding). In kind it is biochemical. The procedure, abridged:
(§1)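 Radiometric filter-binding read-out: after 20 min compound–enzyme/substrate pre-incubation across 9 concentrations, reaction started with ^33P-γ-ATP and run 120 min at room temperature. Filter-bound ^33P-substrate measured after 0.75 % phosphoric acid washes; remaining activity versus DMSO gives IC50.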

In assay [1] the target is T1, CDK12 (Homo sapiens, UniProt Q9NYV4). As to the kind of experiment: Cellular CDK12 inhibitory activity assay (Ser2 phosphorylation of RNA polymerase II subunit B1 CTD in MDA-MB-231 cells). In kind it is cell-based. Further details: using MDA-MB-231 breast cancer cells; endogenous in cells; host or cells: MDA-MB-231. As to conditions: MDA-MB-231 cells, 6 hours treatment; read-out: pRpbl CTD S2 IC50. The procedure, abridged: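 MDA-MB-231 cells in L-15 with 10 % FBS were treated with compound at 9 concentrations for 6 h at 37 °C, 0 % CO2. In-Cell Western read phospho-Ser2 and total RNA polymerase II CTD on a Li-COR Odyssey; IC50 from 4-parameter dose-response fit.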
T1 sequence (Q9NYV4 whole entry, species assumed): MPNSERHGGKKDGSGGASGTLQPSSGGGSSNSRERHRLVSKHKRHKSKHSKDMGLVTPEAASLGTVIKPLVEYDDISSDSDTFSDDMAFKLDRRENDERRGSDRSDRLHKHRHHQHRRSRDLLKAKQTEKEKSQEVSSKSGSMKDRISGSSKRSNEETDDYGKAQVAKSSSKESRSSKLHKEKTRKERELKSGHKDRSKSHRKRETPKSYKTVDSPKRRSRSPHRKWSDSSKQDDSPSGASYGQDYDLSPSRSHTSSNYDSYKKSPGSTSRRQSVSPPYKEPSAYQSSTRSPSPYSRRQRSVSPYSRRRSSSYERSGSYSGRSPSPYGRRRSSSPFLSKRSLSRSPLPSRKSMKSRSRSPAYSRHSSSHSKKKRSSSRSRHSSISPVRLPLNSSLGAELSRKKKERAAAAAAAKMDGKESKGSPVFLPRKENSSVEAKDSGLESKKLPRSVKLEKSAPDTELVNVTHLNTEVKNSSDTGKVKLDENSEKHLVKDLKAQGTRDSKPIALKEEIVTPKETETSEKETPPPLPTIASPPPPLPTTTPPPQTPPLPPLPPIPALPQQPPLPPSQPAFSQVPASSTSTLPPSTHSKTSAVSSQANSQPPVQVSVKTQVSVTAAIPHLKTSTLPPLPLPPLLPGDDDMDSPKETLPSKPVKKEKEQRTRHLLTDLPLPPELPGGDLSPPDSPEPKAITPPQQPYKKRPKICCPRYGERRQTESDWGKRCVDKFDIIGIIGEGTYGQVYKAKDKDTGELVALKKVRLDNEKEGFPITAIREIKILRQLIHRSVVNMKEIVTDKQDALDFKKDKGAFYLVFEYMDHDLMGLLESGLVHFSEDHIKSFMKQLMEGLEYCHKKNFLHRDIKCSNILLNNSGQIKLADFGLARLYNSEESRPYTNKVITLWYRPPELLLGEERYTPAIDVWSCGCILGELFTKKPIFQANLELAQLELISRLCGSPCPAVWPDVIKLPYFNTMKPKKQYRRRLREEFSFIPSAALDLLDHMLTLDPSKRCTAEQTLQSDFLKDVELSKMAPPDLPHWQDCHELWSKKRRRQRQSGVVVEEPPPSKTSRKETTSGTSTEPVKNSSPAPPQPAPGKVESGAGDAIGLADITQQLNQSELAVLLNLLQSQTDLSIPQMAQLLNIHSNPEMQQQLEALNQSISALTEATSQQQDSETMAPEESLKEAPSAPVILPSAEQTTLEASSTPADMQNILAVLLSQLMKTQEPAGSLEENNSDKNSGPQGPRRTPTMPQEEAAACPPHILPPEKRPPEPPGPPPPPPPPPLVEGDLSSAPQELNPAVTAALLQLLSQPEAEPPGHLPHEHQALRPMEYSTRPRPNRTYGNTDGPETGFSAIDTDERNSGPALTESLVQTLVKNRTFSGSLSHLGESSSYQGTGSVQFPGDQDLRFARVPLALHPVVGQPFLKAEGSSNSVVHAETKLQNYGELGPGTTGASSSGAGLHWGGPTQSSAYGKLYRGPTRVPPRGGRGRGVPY
T1 sequence (O75909 whole entry partner, species assumed): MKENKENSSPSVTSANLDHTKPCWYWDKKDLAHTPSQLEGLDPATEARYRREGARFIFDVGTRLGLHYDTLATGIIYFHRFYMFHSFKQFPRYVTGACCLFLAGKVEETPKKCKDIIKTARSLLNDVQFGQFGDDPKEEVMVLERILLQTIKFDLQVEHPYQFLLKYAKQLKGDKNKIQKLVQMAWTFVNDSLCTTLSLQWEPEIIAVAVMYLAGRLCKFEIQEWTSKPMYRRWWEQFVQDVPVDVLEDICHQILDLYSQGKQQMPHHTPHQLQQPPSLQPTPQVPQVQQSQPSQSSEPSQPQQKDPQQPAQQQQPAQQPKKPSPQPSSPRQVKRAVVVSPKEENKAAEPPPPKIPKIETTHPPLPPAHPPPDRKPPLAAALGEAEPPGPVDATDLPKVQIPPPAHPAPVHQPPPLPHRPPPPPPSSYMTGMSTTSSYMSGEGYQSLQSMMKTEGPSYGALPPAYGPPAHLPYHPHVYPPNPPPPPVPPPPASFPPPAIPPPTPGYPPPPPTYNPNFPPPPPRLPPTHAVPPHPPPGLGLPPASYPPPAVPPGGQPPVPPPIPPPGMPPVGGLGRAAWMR

The target of assay [2] is T1, CDK12. As to the kind of experiment: CDK12 kinase inhibitory activity assay (33P-ATP filter binding). The settings on record: kinase reaction 120 minutes, 33P-gamma-ATP; read-out: CDK12 IC50. It is filed as biochemical. The procedure, abridged: as §1
Assay [3] deals with MDA-MB-231 breast cancer cells. The assay is described as follows: Proliferation inhibitory activity assay against MDA-MB-231 breast cancer cells. In kind it is cell-based. The settings on record: Homo sapiens, 72 hours, CellTiter Glo, relative IC50. The procedure, abridged: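 Cells grown in L-15 with 10% FBS at 37 °C, 0% CO2, then exposed next day to compounds at 9 concentrations (DMSO vehicle) for 72 h. Viability read by CellTiter Glo luminescence; relative IC50 from dose-response curve fit.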
(In general: Cellular ATP, detected with luciferase, serves as a proxy for viable cell number.)

[4] abbreviates: kinase reaction 120 minutes, 33P-gamma-ATP, read-out: CDK13 IC50.

21 molecules from patent EP4813991A1 (iLeadBMS Co., Ltd., priority 2023, dated 2025) can be followed below.

What is called IC50 is the concentration that gives 50% inhibition.

Like-named read-outs stand apart in the source and are kept apart here.

Chain of CDK13 (Q14004 whole entry, species assumed): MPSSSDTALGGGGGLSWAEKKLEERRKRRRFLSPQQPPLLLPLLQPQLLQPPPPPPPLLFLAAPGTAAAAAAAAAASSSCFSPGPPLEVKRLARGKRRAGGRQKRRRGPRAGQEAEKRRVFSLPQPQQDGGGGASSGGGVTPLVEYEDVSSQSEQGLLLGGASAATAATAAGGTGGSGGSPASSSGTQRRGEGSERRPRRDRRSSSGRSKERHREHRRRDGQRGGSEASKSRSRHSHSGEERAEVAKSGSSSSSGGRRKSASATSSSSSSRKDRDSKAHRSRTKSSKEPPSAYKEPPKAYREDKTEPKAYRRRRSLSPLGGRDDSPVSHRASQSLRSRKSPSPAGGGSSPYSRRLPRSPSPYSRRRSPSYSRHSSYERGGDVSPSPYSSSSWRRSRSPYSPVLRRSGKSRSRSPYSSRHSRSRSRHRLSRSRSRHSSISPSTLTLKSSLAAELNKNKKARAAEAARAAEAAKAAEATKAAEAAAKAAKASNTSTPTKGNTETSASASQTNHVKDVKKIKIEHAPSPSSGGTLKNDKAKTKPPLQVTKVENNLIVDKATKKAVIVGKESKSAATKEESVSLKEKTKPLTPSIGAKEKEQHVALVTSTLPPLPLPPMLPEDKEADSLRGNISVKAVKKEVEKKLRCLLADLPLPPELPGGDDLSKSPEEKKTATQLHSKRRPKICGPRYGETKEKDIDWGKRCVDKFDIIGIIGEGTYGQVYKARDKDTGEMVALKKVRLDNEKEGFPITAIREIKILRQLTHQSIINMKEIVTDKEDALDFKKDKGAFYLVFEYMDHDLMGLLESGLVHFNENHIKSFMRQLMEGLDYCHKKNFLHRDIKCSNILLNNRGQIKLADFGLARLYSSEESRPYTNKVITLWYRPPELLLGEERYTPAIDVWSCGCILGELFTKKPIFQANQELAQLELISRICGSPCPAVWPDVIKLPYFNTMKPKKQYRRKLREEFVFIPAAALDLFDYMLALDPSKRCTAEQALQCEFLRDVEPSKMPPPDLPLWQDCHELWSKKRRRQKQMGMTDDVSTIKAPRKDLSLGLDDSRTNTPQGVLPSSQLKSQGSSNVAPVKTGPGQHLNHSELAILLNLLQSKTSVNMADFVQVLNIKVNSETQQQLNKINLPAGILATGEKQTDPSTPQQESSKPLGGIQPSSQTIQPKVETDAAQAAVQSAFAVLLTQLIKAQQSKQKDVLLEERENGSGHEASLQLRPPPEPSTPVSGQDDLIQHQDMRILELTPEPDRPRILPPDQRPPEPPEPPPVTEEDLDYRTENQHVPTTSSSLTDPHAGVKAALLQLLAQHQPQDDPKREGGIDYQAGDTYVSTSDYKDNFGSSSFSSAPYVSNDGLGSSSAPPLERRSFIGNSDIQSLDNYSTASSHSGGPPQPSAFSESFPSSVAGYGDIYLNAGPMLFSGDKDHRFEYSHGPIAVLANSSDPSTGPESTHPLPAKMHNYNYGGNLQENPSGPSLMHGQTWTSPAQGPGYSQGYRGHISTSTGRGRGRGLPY
Chain of CDK13 (O75909 whole entry partner, species assumed): as the sequence (O75909 whole entry partner, species assumed) above

Regarding `Fc1ccc2nc(CNc3cc(N4CCN(C5CC5)CC4)nn4c(C(F)(F)F)cnc34)[nH]c2c1F` [Example 28, 6-(4-cyclopropylpiperazin-1-yl)-N-((6,7-difluoro-1H-benzo[d]imidazol-2-yl)methyl)-3-(trifluoromethyl)imidazo[1,2-b]pyridazin-8-amine], the IC50 fell in the range of 100 to 500 nM on CDK13, 300 to 3000 nM at CDK12 [1], 100 to 500 nM at CDK12 [2] and 50 to 500 nM in assay [3].
Regarding `FC(F)(F)c1cnc2c(NCc3nc4cc(Cl)c(Cl)cc4[nH]3)cc(N3CCNCC3)nn12` [Example 57, N-((5,6-dichloro-1H-benzo[d]imidazol-2-yl)methyl)-6-(piperazin-1-yl)-3-(trifluoromethyl)imidazo[1,2-b]pyridazin-8-amine], the IC50 is less than 100 nM at CDK13 (setting [4]), less than 300 nM at CDK12 [1], less than 100 nM at CDK12 [2] and not above 50 nM in assay [3].
Take `Fc1ccc2nc(CNc3cc(N4CC5CCC(C4)N5)nn4c(C(F)(F)F)cnc34)[nH]c2c1F` [Example 10, 6-(3,8-diazabicyclo[3.2.1]octan-3-yl)-N-((6,7-difluoro-1H-benzo[d]imidazol-2-yl)methyl)-3-(trifluoromethyl)imidazo[1,2-b]pyridazin-8-amine]: the IC50 is less than 100 nM at CDK13 (setting [4]), less than 300 nM on CDK12 [1], less than 100 nM on CDK12 [2] and not above 50 nM in assay [3].
As to `C[C@@H]1CN(c2cc(NCc3nc4cc(F)c(F)cc4[nH]3)c3ncc(C(F)(F)F)n3n2)C[C@H](C)N1` [Example 112, N-((5,6-difluoro-1H-benzo[d]imidazol-2-yl)methyl)-6-((3S, 5R)-3,5-dimethylpiperazin-1-yl)-3-(trifluoromethyl)imidazo[1,2-b]pyridazin-8-amine], the IC50 was less than 100 nM on CDK13 (setting [4]), less than 300 nM on CDK12 [1], less than 100 nM at CDK12 [2] and not above 50 nM in assay [3].
As to `NC1CN(c2cc(NCc3nc4cc(Cl)c(Cl)cc4[nH]3)c3ncc(C(F)(F)F)n3n2)C1` [Example 36], the IC50 was less than 100 nM at CDK13 (setting [4]), less than 300 nM at CDK12 [1], less than 100 nM at CDK12 [2] and not above 50 nM in assay [3].
In the case of `CC(C)c1cnc2c(NCc3nc4ccc(F)c(F)c4[nH]3)cc(N3CCOCC3)nn12` [Example 3, N-((6,7-difluoro-1H-benzo[d]imidazol-2-yl)methyl)-3-isopropyl-6-morpholinoimidazo[1,2-b]pyridazin-8-amine], the IC50 was 100 to 500 nM at CDK13, 300 to 3000 nM at CDK12 [1], more than 500 nM at CDK12 [2] and 50 to 500 nM in assay [3].
As for `FC(F)(F)c1cnc2c(NCc3nc4cc(Cl)c(Cl)cc4o3)cc(N3CCOCC3)nn12` [Example 91, N-((5,6-dichlorobenzo[d]oxazol-2-yl)methyl)-6-morpholino-3-(trifluoromethyl)imidazo[1,2-b]pyridazin-8-amine], the IC50 is more than 500 nM at CDK13 (setting [4]), 300 to 3000 nM on CDK12 [1], more than 500 nM at CDK12 [2] and 50 to 500 nM in assay [3].
For `O[C@@H]1CCN(c2cc(NCc3nc4cc(Cl)c(Cl)cc4[nH]3)c3ncc(C(F)(F)F)n3n2)C1` [Example 62, (R)-1-(8-(((5,6-dichloro-1H-benzo[d]imidazol-2-yl)methyl)amino)-3-(trifluoromethyl)imidazo[1,2-b]pyridazin-6-yl)pyrrolidin-3-ol], the IC50 was 100 to 500 nM on CDK13, less than 300 nM on CDK12 [1], 100 to 500 nM on CDK12 [2] and 50 to 500 nM in assay [3].
With `N#CC1CCN(c2cc(NCc3nc4cc(Cl)c(Cl)cc4[nH]3)c3ncc(C(F)(F)F)n3n2)C1` (stereo not drawn) [Example 49, 1-(8-(((5,6-dichloro-1H-benzo[d]imidazol-2-yl)methyl)amino)-3-(trifluoromethyl)imidazo[1,2-b]pyridazin-6-yl)pyrrolidine-3-carbonitrile], the IC50 on CDK13 (setting [4]) is less than 100 nM; on CDK12 [1], less than 300 nM; at CDK12 [2], less than 100 nM; in assay [3], not above 50 nM.
As for `O[C@H]1CCN(c2cc(NCc3nc4cc(Cl)c(Cl)cc4[nH]3)c3ncc(C(F)(F)F)n3n2)C1` [Example 63, (S)-1-(8-(((5,6-dichloro-1H-benzo[d]imidazol-2-yl)methyl)amino)-3-(trifluoromethyl)imidazo[1,2-b]pyridazin-6-yl)pyrrolidin-3-ol], the IC50 on CDK13 is less than 100 nM; on CDK12 [1], less than 300 nM; at CDK12 [2], 100 to 500 nM; in assay [3], 50 to 500 nM.
For the molecule `NC(=O)N1CCN(c2cc(NCc3nc4cc(Cl)c(Cl)cc4[nH]3)c3ncc(C(F)(F)F)n3n2)CC1` [Example 66, 4-(8-(((5,6-dichloro-1H-benzo[d]imidazol-2-yl)methyl)amino)-3-(trifluoromethyl)imidazo[1,2-b]pyridazin-6-yl)piperazine-1-carboxamide], the IC50 is less than 100 nM on CDK13, less than 300 nM at CDK12 [1], less than 100 nM at CDK12 [2] and 50 to 500 nM in assay [3].
Regarding `CN1CCN(c2cc(NCc3nc4cc(F)c(F)cc4[nH]3)c3ncc(C(F)(F)F)n3n2)CC1` [Example 110, N-((5,6-difluoro-1H-benzo[d]imidazol-2-yl)methyl)-6-(4-methylpiperazin-1-yl)-3-(trifluoromethyl)imidazo[1,2-b]pyridazin-8-amine], the IC50 was less than 100 nM at CDK13 (setting [4]), less than 300 nM at CDK12 [1], less than 100 nM on CDK12 [2] and not above 50 nM in assay [3].
In the case of `NC(=O)N1CCN(c2cc(NCc3nc4ccc(F)c(F)c4[nH]3)c3ncc(C(F)(F)F)n3n2)CC1` [Example 92, 4-(8-(((6,7-difluoro-1H-benzo[d]imidazol-2-yl)methyl)amino)-3-(trifluoromethyl)imidazo[1,2-b]pyridazin-6-yl)piperazine-1-carboxamide], the IC50 at CDK13 was less than 100 nM; on CDK12 [1], 300 to 3000 nM; at CDK12 [2], less than 100 nM; in assay [3] it was 50 to 500 nM.
On to `OC1CC2(C1)CN(c1cc(NCc3nc4cc(Cl)c(Cl)cc4[nH]3)c3ncc(C(F)(F)F)n3n1)C2` [Example 47, 2-(8-(((5,6-dichloro-1H-benzo[d]imidazol-2-yl)methyl)amino)-3-(trifluoromethyl)imidazo[1,2-b]pyridazin-6-yl)-2-azaspiro[3.3]heptan-6-ol], for which the IC50 on CDK13 (setting [4]) was less than 100 nM; on CDK12 [1], less than 300 nM; at CDK12 [2], 100 to 500 nM; in assay [3], not above 50 nM.
For `CCc1cnc2c(NCc3nc4ccc(F)c(F)c4[nH]3)cc(N3CCOCC3)nn12` [Example 5, N-((6,7-difluoro-1H-benzo[d]imidazol-2-yl)methyl)-3-ethyl-6-morpholinoimidazo[1,2-b]pyridazin-8-amine] the same measures were less than 100 nM, 300 to 3000 nM, 100 to 500 nM and 50 to 500 nM.
Take `O=C(CO)N1CCN(c2cc(NCc3nc4cc(Cl)c(Cl)cc4[nH]3)c3ncc(C(F)(F)F)n3n2)CC1` [Example 102, 1-(4-(8-(((5,6-dichloro-1H-benzo[d]imidazol-2-yl)methyl)amino)-3-(trifluoromethyl)imidazo[1,2-b]pyridazin-6-yl)piperazin-1-yl)-2-hydroxyethan-1-one]: the IC50 at CDK13 (setting [4]) is less than 100 nM; on CDK12 [1], less than 300 nM; at CDK12 [2], less than 100 nM; in assay [3] it was not above 50 nM.
Turning to `FC(F)(F)c1cnc2c(NCc3cn4cccnc4n3)cc(N3CCOCC3)nn12` [Example 83, N-(imidazo[1,2-a]pyrimidin-2-ylmethyl)-6-morpholino-3-(trifluoromethyl)imidazo[1,2-b]pyridazin-8-amine], the IC50 on CDK13 is less than 100 nM; on CDK12 [1], 300 to 3000 nM; at CDK12 [2], less than 100 nM; in assay [3], 50 to 500 nM.
In the case of `Fc1cc2nc(CNc3cc(N4CCNCC4)nn4c(C(F)(F)F)cnc34)[nH]c2cc1F` [Example 109], the IC50 at CDK13 (setting [4]) was less than 100 nM; at CDK12 [1] it was less than 300 nM; on CDK12 [2], less than 100 nM; in assay [3] it was not above 50 nM.
With `FC(F)(F)c1cc2nc(CNc3cc(N4CCOCC4)nn4c(C(F)(F)F)cnc34)[nH]c2cc1C(F)(F)F` [Example 81, N-((5,6-bis(trifluoromethyl)-1H-benzo[d]imidazol-2-yl)methyl)-6-morpholino-3-(trifluoromethyl)imidazo[1,2-b]pyridazin-8-amine], the IC50 at CDK13 (setting [4]) is 100 to 500 nM; on CDK12 [1] it was 300 to 3000 nM; at CDK12 [2], more than 500 nM; in assay [3], 50 to 500 nM.
For the molecule `CC1(O)CCN(c2cc(NCc3nc4cc(Cl)c(Cl)cc4[nH]3)c3ncc(C(F)(F)F)n3n2)CC1` [Example 53, 1-(8-(((5,6-dichloro-1H-benzo[d]imidazol-2-yl)methyl)amino)-3-(trifluoromethyl)imidazo[1,2-b]pyridazin-6-yl)-4-methylpiperidin-4-ol], the IC50 was 100 to 500 nM on CDK13 (setting [4]), less than 300 nM at CDK12 [1], 100 to 500 nM at CDK12 [2] and not above 50 nM in assay [3].
In the case of `FC(F)(F)c1cnc2c(NCc3cc4ncccc4[nH]3)cc(N3CCOCC3)nn12` [Example 87, N-((1H-pyrrolo[3,2-b]pyridin-2-yl)methyl)-6-morpholino-3-(trifluoromethyl)imidazo[1,2-b]pyridazin-8-amine], the IC50 on CDK13 is less than 100 nM; on CDK12 [1] it was 300 to 3000 nM; on CDK12 [2], less than 100 nM; in assay [3], 50 to 500 nM.
